# From patent publication US20150136150A1, “DURABLE SKIN MARKING COMPOSITIONS” (OP-MARKS, INC., priority 2011, published 2015)
# Where “and” joins values, the source holds several entries; their conditions need not be identical. Identical values can stand only once. Like-named read-outs stand apart in the source and are kept apart here.
# Columns and labels:
# [1] = Solvent miscibility and compatibility with octyl cyanoacrylate; assay type: physicochemical; set-up: key: V = slightly viscous; VV = viscous; VVV = very viscous; Lyr = layers; Pl = pale; Lt = light; Y = yellow; RX = reacts; Gry = grey; Brn = brown; Blk = black; conditions: 3 ml solvent + 3 ml OCA
# Experimental: (§1) Next, the solvents were tested for miscibility and compatibility with cyanoacrylate esters. Briefly, beginning with 3 ml samples each of butyl cyanoacrylate (BCA), octyl cyanoacrylate (OCA) and ethoxyethyl cyanoacrylate (EECA), 3 ml of each solvent was added drop-wise to each cyanoacrylate sample and agitated to aid mixing. Observations of the samples were taken immediately and then at regular intervals over 7 days. […] The remaining 10 solvents were ranked according to their compatibility with the cyanoacrylate esters based primarily on their compatibility with BCA over 7 days, secondarily on their compatibility with OCA, and finally on their miscibility with EECA.
# [2] = Solvent compatibility with viscosity-increasing polymer, viscosity of solution: MMA; assay type: physicochemical; set-up: unit not given here; conditions: polymer added at 5% by weight, up to 3 days agitation
# [3] = Solvent compatibility with viscosity-increasing polymer, viscosity of solution: CAB; assay type: physicochemical; set-up: unit not given here; conditions: polymer added at 5% by weight, up to 3 days agitation
# [4] = relative volatility compared to butyl acetate; cited from earlier work
# [5] = cited from earlier work
# [6] = system: rat; conditions: cited from earlier work
# [7] = Solvent miscibility and compatibility with ethoxyethyl cyanoacrylate; assay type: physicochemical; conditions: 3 ml solvent + 3 ml EECA
# Experimental: as §1
# [8] = Solvent compatibility with viscosity-increasing polymer, viscosity of solution: VEE; assay type: physicochemical; set-up: unit not given here; conditions: polymer added at 5% by weight, up to 3 days agitation
# [9] = Solvent compatibility with viscosity-increasing polymer, viscosity of solution: IB; assay type: physicochemical; conditions: for Dissolution of polyisobutylene: 5% by weight, up to 3 days; for Viscosity of solution with IB: polymer added at 5% by weight, up to 3 days agitation
# [10] = Colorant solubility in solvent; conditions: for PPM dye soluble: 10 g solvent added to 0.4 g D&C Violet #2, shaken 30 minutes, stood 30 minutes; for Dye solubility, suitability: D&C Violet #2
# Experimental: For the remaining solvents, colorant solubility was assessed in terms of the solubility of D&C Violet #2. Briefly, 10 g of each of the solvents listed in Table 5 was added to 0.4 g of dye in 12 ml test tubes. The samples were shaken for 30 minutes then allowed to stand for 30 minutes. After standing, 5 ml of the top layer was removed and weighed into pre-weighed aluminum weigh boats where the solvent was allowed to evaporate before re-weighing.
# [11] = Solvent miscibility and compatibility with butyl cyanoacrylate; assay type: physicochemical; set-up: key: V = slightly viscous; VV = viscous; VVV = very viscous; Lyr = layers; Pl = pale; Lt = light; Y = yellow; RX = reacts; Gry = grey; Brn = brown; Blk = black; conditions: 3 ml solvent + 3 ml BCA
# Experimental: as §1
# [12] = Solvent miscibility and compatibility with cyanoacrylate esters (overall); assay type: physicochemical; conditions: observations over 7 days
# Experimental: as §1
molecule,measurement,setting,value
"C1COCCO1 [1,4 Dioxane]","OCA compatibility, 7 Day",[1],VVV
same,Viscosity of solution with MMA,[2],17
same,Viscosity of solution with CAB,[3],6.9
same,VL (volatility),[4],2.7
same,VP (vapor pressure),[5]; at 20 ° C.,27@20 mmHg
CCCCC(CC)CO (centres unmarked) [2-ethyl hexanol],VL (volatility),[4],0.01
same,"TOX (toxicity, LD50)","[6]; rat, in vivo, po",3730 mg/kg
same,VP (vapor pressure),[5]; at 20 ° C.,0.36@20^ mmHg
COCCOCCOC [2-methoxy ethyl ether],VP (vapor pressure),[5]; at 25 ° C.,3@25 mmHg
CCC(C)=O [Butanone],"OCA compatibility, 1 Day",[1],V
same,"OCA compatibility, 2 Day",[1],VV
same,"OCA compatibility, 7 Day",[1],VV
same,Viscosity of solution with MMA,[2],4.5 and 4.2
same,Viscosity of solution with CAB,[3],1.8
same,VL (volatility),[4],2.7
same,"TOX (toxicity, LD50)",[6]; oral dose administered to rat,2737 mg/kg
same,VP (vapor pressure),[5]; at 60 ° C.,400@60 mmHg
CCCCOCCO [Butoxyethanol],VP (vapor pressure),[5]; at 20 ° C.,0.8@20 mmHg
CCCCOC(C)=O [Butyl acetate],VL (volatility),[4],1
same,"TOX (toxicity, LD50)","[6]; rat, in vivo, po",10768 mg/kg
C1CCCCC1 [Cyclohexane],"OCA compatibility, 1 Day",[1],V
same,"OCA compatibility, 2 Day",[1],VV
same,"OCA compatibility, 7 Day",[1],VV
same,"EECA compatibility, 1 Day",[7],2Lyr
same,"EECA compatibility, 2 Day",[7],2Lyr
same,"EECA compatibility, 7 Day",[7],2Lyr
same,"EECA compatibility, Time 0",[7],2Lyr
same,Viscosity of solution with VEE,[8],4.5
same,Dissolution of polyisobutylene,[9],partially dissolve
same,Viscosity of solution with IB,[9],59
same,PPM dye soluble,[10],600 PPM
same,"Dye solubility, suitability",[10],insufficient dye solubility
same,VL (volatility),[4],2.6
same,"TOX (toxicity, LD50)","[6]; rat, in vivo, po",12705 mg/kg
same,VP (vapor pressure),[5]; at 20 ° C.,95@20 mmHg
O=C1CCCCC1 [Cyclohexanone],VL (volatility),[4],0.29
same,"TOX (toxicity, LD50)","[6]; rat, in vivo, po",1000 mg/kg
same,VP (vapor pressure),[5]; at 25 ° C.,5@25 mmHg
CC(=O)CC(C)(C)O [Diacetone alcohol],VL (volatility),[4],0.14
same,"TOX (toxicity, LD50)",[6]; oral dose administered to rat,4000 mg/kg
same,VP (vapor pressure),[5]; at 20 ° C.,0.95@20^ mmHg
CC(Cl)CCl (centres unmarked) [Dichloropropane],VL (volatility),[4],−1
same,"TOX (toxicity, LD50)",[6]; oral dose administered to rat,1947 mg/kg
same,VP (vapor pressure),[5]; at 20 ° C.,40@20 mmHg
CCOCC [Diethyl ether],Viscosity of solution with VEE,[8],1.2
same,VL (volatility),[4],37.5
same,VP (vapor pressure),[5]; at 20 ° C.,440@20 mmHg
OCCOCCO [Diethylene glycol],VP (vapor pressure),[5]; at 92 ° C.,1@92 mmHg
CC(C)CC(=O)CC(C)C [Diisobutyl ketone],"TOX (toxicity, LD50)","[6]; rat, in vivo, po",5750 mg/kg
CC(C)C(=O)C(C)C [Diisopropyl ketone],VL (volatility),[4],0.17
same,"TOX (toxicity, LD50)","[6]; rat, in vivo, po",3536 mg/kg
same,VP (vapor pressure),[5]; at 37 ° C.,13.3@37^ mmHg
CCOCCOC(C)=O [Ethoxyethyl acetate],VL (volatility),[4],−1
same,"TOX (toxicity, LD50)","[6]; rat, in vivo, po",2700 mg/kg
same,VP (vapor pressure),[5]; at 20 ° C.,2@20 mmHg
CCOC(C)=O [Ethyl acetate],"OCA compatibility, 2 Day",[1],V?
same,"OCA compatibility, 7 Day",[1],VV
same,Viscosity of solution with MMA,[2],4.7
same,Viscosity of solution with CAB,[3],2.3
same,PPM dye soluble,[10],3400 PPM
same,VL (volatility),[4],6
same,"TOX (toxicity, LD50)",[6]; oral dose administered to rat,5620 mg/kg
CCCCCCC [Heptane],"BCA compatibility, 1 Day",[11]; 1 Day,PlY
same,"BCA compatibility, 2 Day",[11]; 2 Day,LtY
same,"BCA compatibility, 7 Day",[11]; 7 Day,LtY
same,"OCA compatibility, 2 Day",[1],VV
same,"OCA compatibility, 7 Day",[1],VV
same,"EECA compatibility, 1 Day",[7],2Lyr
same,"EECA compatibility, 2 Day",[7],2Lyr
same,"EECA compatibility, 7 Day",[7],2Lyr
same,"EECA compatibility, Time 0",[7],2Lyr
same,Viscosity of solution with VEE,[8],1.5
same,Dissolution of polyisobutylene,[9],partially dissolve
same,Viscosity of solution with IB,[9],11
same,VL (volatility),[4],4.3
same,"TOX (toxicity, LD50)","[6]; rat, in vivo, po",3200 mg/kg
same,VP (vapor pressure),[5]; at 20 ° C.,40@20 mmHg
CCCCCC [Hexane],"EECA compatibility, 1 Day",[7],2Lyr
same,"EECA compatibility, 2 Day",[7],2Lyr
same,"EECA compatibility, 7 Day",[7],2Lyr
same,"EECA compatibility, Time 0",[7],2Lyr
same,Viscosity of solution with VEE,[8],0.9
same,Viscosity of solution with IB,[9],7.7
same,PPM dye soluble,[10],500 PPM
same,"Dye solubility, suitability",[10],insufficient dye solubility
same,"TOX (toxicity, LD50)","[6]; rat, in vivo, po",28710 mg/kg
same,VP (vapor pressure),[5]; at 20 ° C.,132@20 mmHg
C=CC(=C)C [Isoprene],"BCA compatibility, Time 0",[11]; time 0,RX
same,Reaction with the cyanoacrylate esters,[12],apparent reactions
same,VL (volatility),[4],28.6
same,"TOX (toxicity, LD50)","[6]; rat, in vivo, po",2100 mg/kg
same,VP (vapor pressure),[5]; at 20 ° C.,560@20 mmHg
COCCO [Methoxy ethanol],VL (volatility),[4],−1
same,"TOX (toxicity, LD50)",[6]; oral dose administered to rat,2370 mg/kg
same,VP (vapor pressure),[5]; at 20 ° C.,6.2@20 mmHg
COCC(C)O (centres unmarked) [Methoxy propanol],VL (volatility),[4],0.3
same,"TOX (toxicity, LD50)",[6]; oral dose administered to rat,8532 mg/kg
CC1CCCCC1 [Methyl cyclohexane],VL (volatility),[4],2.99
same,"TOX (toxicity, LD50)",[6]; oral dose administered to rat,2250 mg/kg
same,VP (vapor pressure),[5]; at 20 ° C.,37@20 mmHg
CC(=O)CC(C)C [Methyl isobutyl ketone],VL (volatility),[4],1.6
same,"TOX (toxicity, LD50)",[6]; oral dose administered to rat,1600 mg/kg
same,VP (vapor pressure),[5]; at 20 ° C.,16@20 mmHg
C[N+](=O)[O-] [Nitromethane],VL (volatility),[4],1.39
same,VP (vapor pressure),[5]; at 20 ° C.,28@20 mmHg
CCCOCC(C)O (centres unmarked) [PGPE (Arcosolv)],VL (volatility),[4],0.21
same,VP (vapor pressure),[5]; at 20 ° C.,1.7@20 mmHg
CCCOC(C)=O [Propyl acetate],VL (volatility),[4],3.0
same,"TOX (toxicity, LD50)","[6]; rat, in vivo, po",6640 mg/kg
same,VP (vapor pressure),[5]; at 20 ° C.,25@20 mmHg
"C1CCOC1 [THF, tetrahydrofuran]","OCA compatibility, 1 Day",[1],VV
same,"OCA compatibility, 2 Day",[1],VV
same,"OCA compatibility, 7 Day",[1],VV
same,Viscosity of solution with MMA,[2],5.3
same,Viscosity of solution with CAB,[3],3.1
same,VL (volatility),[4],8
same,VP (vapor pressure),[5]; at 20 ° C.,129@20 mmHg
CC(=O)OC(C)(C)C [t-Butyl acetate],VL (volatility),[4],1.5
same,"TOX (toxicity, LD50)",[6]; oral dose administered to rat,13400 mg/kg
CC(=O)OC(C)C [t-propyl acetate],PPM dye soluble,[10],2200 PPM
same,"TOX (toxicity, LD50)",[6]; oral dose administered to rat,6750 mg/kg
same,VP (vapor pressure),[5]; at 25 ° C.,59@25 mmHg
Methyl cyclohexanone,VL (volatility),[4],0.29
same,"TOX (toxicity, LD50)",[6]; oral dose administered to rat,2140 mg/kg
same,VP (vapor pressure),[5]; at 20 ° C.,3.3@20 mmHg
Xylene,VL (volatility),[4],0.7
same,"TOX (toxicity, LD50)",[6]; oral dose administered to rat,3910 mg/kg
same,VP (vapor pressure),[5]; at 20 ° C.,9@20 mmHg
